Measurements: patent publication US20250269036A1, “METHODS FOR ENHANCEMENT OF ENGINEERED CELL THERAPIES IN CANCER TREATMENT” (PURDUE RESEARCH FOUNDATION, priority 2021, published 2025)
“Also recorded” adds a separate entry of the source.

Key:
healthy mice = test: Plasma cytokine levels in healthy mice after tail vein injection; format: in vivo; settings: healthy mice, tail vein, 10 nmol, 1 hour or 1.5 hours after treatment
Experimental: (FIGS. 20A-C) Measurement of plasma IL-6 (FIG. 20A), IFNα (FIG. 20B) and TNFα (FIG. 20C) (n=3). (FIGS. 20D-F). The effect of drug concentration on plasma levels of IL-6 (FIG. 20D), IFNα (FIG. 20E), and TNFα (FIG. 20F) was determined at 1.5h, 1h, or 1h after treatment, respectively (n=2) (FIG. 20G).
(FIGS. 36C and 36D). The effect of drug on plasma levels of IL-6 (FIG. 36C) and TNFα (FIG. 36D) was determined at 1 hour or 1.5 hours after treatment.

[1] = tested on: IL-4, IL-6 plus IL-13 stimulated THP-1 cells (M2-like macrophages); test: Reprogramming of M2-polarized THP-1 macrophages, marker mRNA by qPCR; format: cell-based, human; settings: 2 hours; for CCL18 relative expression / CD206 relative expression / IL-1β relative expression: different nM concentrations, qPCR
Experimental: THP-1 cells were initially selected as a model system because this human monocytic cell line is known to acquire an M2-like phenotype and produce significant quantities of anti-inflammatory cytokines upon stimulation with IL-4, IL-6 plus IL-13.
THP-1 cells were seeded into 96-well plates at a density of 60,000 cells/well. Cells were differentiated into unpolarized macrophages by 48 hours incubation with 200 nM PMA followed by 24 hours incubation in fresh RPMI medium. […] Cultures were maintained at 37° C. in a humidified 5% CO2 incubator.
Total RNA was isolated from 1×10^5-2×10^5 macrophages using a Quick-RNATM MicroPrep kit (Zymo Research, Irvine, CA) according to the manufacturer-recommended protocol. […] IL-6, CXCL10, IFNα, IFN-γ and CD86 were used as markers for an M1 phenotype, while CCL18, CD206, CD163 and Arg1 were employed as markers for the M2 phenotype. IL-1β, PDGFβ, MMP9 and TIMP 3 were measured as indicators of an anti-inflammatory phenotype. IRAK-4 was used as an indicator of TLR7 stimulation. To control for specificity of the amplification products, a melting curve analysis was performed. […] Each sample was analyzed independently in triplicate for each marker.
Primarily, human monocytic (THP-1) cells were induced to the M2-like phenotype using the methods and materials previously described. In particular, THP-1 cells were seeded into 96-well plates at a density of 60,000 cells/well. Cells were differentiated into unpolarized macrophages by 48h incubation with 200 nM PMA followed by 24 hours incubation in fresh RPMI medium. The resulting macrophages were polarized to an M2-like phenotype by incubation with 20 ng/ml IL-4, 20 ng/ml IL-13, and 5 ng/mL IL-6 for 48h. Cultures were maintained at 37° C. in a humidified 5% CO2 incubator.
In addition to the nonconjugated TLR7 agonist, conjugated compounds of the present disclosure were likewise evaluated. […] The cells were subsequently harvested for gene analysis by qPCR and the relative expression of CCL18 (FIG. 14A), CD206 (FIG. 14B), and IL-1β (FIG. 14C) analyzed.

[2] = tested on: M2-induced THP-1 macrophages; test: Secreted CCL18 and IL-1β in THP-1 macrophage supernatants by ELISA; format: cell-based, human; settings: ELISA, low concentration range (0.1-10 nM)
Experimental: FIGS. 6A-6D show graphical data representative of various marker levels measured from M2-induced THP-1 macrophages treated with different concentrations of drugs for 48 hours (FIGS. 6A and 6B) or for 2 hours, then displaced with fresh medium and cultured for the remaining 46 hours (FIGS. 6C and 6D). In both cases, cell supernatants were collected and secreted CCL18 protein and IL-1β was detected by ELISA.
CCL18 and IL-1β were quantified in induced THP-1 cell supernatants using a human DuoSet ELISA Development System (R&D Systems Europe, Abingdon, UK; #DY394-05) and an IL-1 beta Human ELISA Kit (Thermo Fisher Scientific, Waltham, MA; #BMS224-2) as described by manufactures. BALF samples were analyzed for mouse IFN-γ using ELISA MAX™ Deluxe (Biolegend, San Diego, CA; #430804).

[3] = tested on: FRβ-expressing macrophages; test: In vivo folate imaging of organs with OTL38; parameters: species or system C57BL/6 mice
Experimental: (§1) To evaluate if anti-inflammatory lung macrophages in these mice can be specifically targeted with folate-linked drugs, 10 days after the instillation, 10 nmol (for in vivo imaging) or 100 nmol (for in vivo labeling) of a folate-linked, near infrared fluorescent dye (OTL38) with or without 200-fold excess of FA-glucosamine (a competitor of OTL38) was injected into the tail veins of BM-treated mice and the dye uptake in the major organs was evaluated.
Finally, for the in vivo folate imaging studies, major organs (heart, lung, spleen, liver, small intestine, large intestine, and kidney) were resected and imaged using an AMI live imager (Spectral Instruments Imaging, Tucson, AZ). For in vivo folate receptor labeling studies, lungs of the mice were harvested immediately following euthanasia, digested with a lung dissociation kit (Miltenyi Biotec, Bergisch Gladbach, DE; #130-098-427) as described by gentleMACS Octo Dissociator with Heathers (Miltenyi Biotec, Bergisch Gladbach, DE; #130-096-427) as described by manual and filtered through a 70 μm cell strainer (Miltenyi Biotec, Bergisch Gladbach, DE; #130-098-462). Cells collected in the filtrate were depleted of erythrocytes by […] lysis, washed 2x in cold PBS and labeled for 30 min on ice with antibodies to desired macrophage markers (FITC-CD11b, Biolegend, San Diego, CA; #101205; FE-F4/80, Biolegend, San Diego, CA; #123109). Labeled macrophages were then washed twice in PBS, stained with 7AAD (viability stain) for 15 min and analyzed by flow cytometry using BD Accuri C6 Software (BD Biosciences, San Jose, CA).
FIGS. 7C and 7D show FRβ IHC staining of human IPF lung tissue (FIG. 7C) and healthy human lung tissue (FIG. 7D). […] After 2 hours, mice were sacrificed prior to analysis. […] For in vivo folate receptor labeling studies, lungs of the mice were harvested immediately following euthanasia, digested and then labeled with antibodies to desired macrophages markers (FITC-CD11b, PE-F4/80) and 7AAD (live/dead staining) and analyzed by flow cytometry.

[4] = tested on: FRβ positive macrophages in the inflamed lung; test: In vivo folate receptor labeling of lung macrophages, flow cytometry; parameters: species or system C57BL/6 mice
Experimental: as §1
Finally, for the in vivo folate imaging studies, major organs (heart, lung, spleen, liver, small intestine, large intestine, and kidney) were resected and imaged using an AMI live imager (Spectral Instruments Imaging, Tucson, AZ). […] Labeled macrophages were then washed twice in PBS, stained with 7AAD (viability stain) for 15 min and analyzed by flow cytometry using BD Accuri C6 Software (BD Biosciences, San Jose, CA).
FIGS. 7C and 7D show FRβ IHC staining of human IPF lung tissue (FIG. 7C) and healthy human lung tissue (FIG. 7D). […] For in vivo folate receptor labeling studies, lungs of the mice were harvested immediately following euthanasia, digested and then labeled with antibodies to desired macrophages markers (FITC-CD11b, PE-F4/80) and 7AAD (live/dead staining) and analyzed by flow cytometry. […]

Compound	CCL18 relative expression [1]	CD206 relative expression [1]	IL-1β relative expression [1]	secretion of CCL18 protein [2]	other results
CCOCc1nc2c(N)nc3ccccc3c2n1CC(C)(C)O [Compound A, reference compound]					systemic cytokine release (plasma IL-6, TNFα) (healthy mice): stimulated systemic cytokine release
Nc1nc2ncc(CNc3ccc(C(=O)N[C@@H](CCC(=O)NCCOCCOCCOCCOCC4CCCN(CCNc5ccc(Cn6c(=O)[nH]c7c(N)nc(C(F)(F)F)cc76)cn5)C4)C(=O)O)cc3)nc2c(=O)[nH]1 (stereo partly shown) [Compound 3D]	reduced	reduced	reduced	downregulated	effectiveness in reducing M2 markers relative to the other compounds ([1]; CCL18, CD206, IL-1β): most effective
Nc1nc(C(F)(F)F)cc2c1[nH]c(=O)n2Cc1ccc(NCCN2CCCC(CO)C2)nc1 (stereo not shown) [Compound 3A]				downregulated	
OTL38					lung accumulation with competitor ([3]; BM-treated mice, simultaneous 200-fold excess folate-glucosamine): nearly quantitative blockade of lung accumulation; OTL38 fluorescence in organs of healthy mice ([3]; tail vein, 10 nmol, 2 hours): only observed in the kidneys; accumulation in lungs of BM-treated mice ([3]; tail vein, 10 nmol, day 10 post BM, 2 hours): in the lungs of BM-treated but not healthy mice; also recorded: pronounced accumulation in the fibrotic lungs; folate-dye retention in macrophage-like cells with competitor ([4]; 100 nmol plus 200-fold excess folate-glucosamine): blocked essentially all folate-dye retention; macrophage-like cells showing folate-targeted dye retention ([4]; fibrotic mice, 100 nmol, tail vein): about 22%
Nc1nc2ncc(CNc3ccc(C(=O)NC(CCC(=O)N[C@@H](CSSCCOC(=O)OCC4CCCN(CCNc5ccc(Cn6c(=O)[nH]c7c(N)nc(C(F)(F)F)cc76)cn5)C4)C(=O)O)C(=O)O)cc3)nc2c(=O)[nH]1 (stereo partly shown) [Compound 3B]	reduced	reduced	reduced	downregulated	
